Laboratory results from publication PMC9727182, “Identification of pharmacokinetic markers for safflower injection using a combination of system pharmacology, multicomponent pharmacokinetics, and quantitative proteomics study” (Frontiers in Pharmacology, 2022).
Where “and” joins values, the source holds several entries; their conditions need not be identical. Equal values may be shown once.

Assays:
[1] = Multicomponent pharmacokinetics in rat plasma after i.v. safflower injection (SI); conditions: for AUC(0-inf) / AUC(0-t) / Cmax / MRT inf / MRT last / Vd / clearance / half-life: male, Sprague-Dawley, rat, iv; for detected mean maximum plasma concentration: rats, after administration of 4 ml/kg of SI
Experimental: The animal experiments were approved by the Animal Care and Use Committee of the College of Animal Science (College of Bee Science), Fujian Agriculture and Forestry University (Approval Number: PZCASFAFU21012). 250 ± 20 g of male Sprague-Dawley (SD) rats were provided by Lab Animal Center in Fujian Medical University (Fuzhou, China).
Ten rats were divided into three groups (Low dose group, n = 4; medium and high groups, n = 3, respectively). […] For each rat, 2 ml of physiological saline was supplemented after 30 min sampling via intraperitoneal injection. The plasma samples were obtained by centrifugation at 3,000 rpm for 10 min and stored at −20°C until analysis.
Clear supernatant (5 μl) was injected into HPLC-MS for bioanalysis.
The sample was separated on a RD-C18 column (4.6 mm × 50 mm, 3.5 μm, Zhongpu Develop, China). The mobile phase incudes water with 0.1% acetic acid (A) and acetonitrile (B). […] The column temperature, flow rate and injection volume were set at 30°C, 0.5 ml/min and 5 μl, respectively.
Non-compartmental model was used to calculate the PK parameters by DAS 3.0 software (Chinese Pharmacologic Society, Beijing, China). A single-tailed t-test was carried out in the study.

[2] = system: H9c2 cardiomyocytes injured by H2O2; assay: TMT quantitative proteomics of H2O2-injured cardiomyocytes; assay type: cell-based; conditions: 168 μM
Experimental: The procedures for cell culture, group and administration are similar to those in “2.7. […] Briefly, the difference is that H9c2 cells were seeded and cultured in a culture flask with a bottom area of 25 cm^2 with a density 1×10^5 cells/ml. After treatment, about 3×10^7 cells per group were collected for the next quantitative proteomics investigation, which was done by Jingjie PTM Biolabs (Hangzhou, China). All the procedures for quantitative proteomics can be found in the section of “5. Quantitative proteomics” of the Supplementary Material.
The quantitative proteomics study was carried out according to our previous report ([Li et al., 2022]). Relative quantitative values of proteins in two samples were compared via t-test. […] The identified difference proteins between groups were subjected further to principal component analysis (PCA). […] The subcellular structure location was analyzed using these proteins as objectives.

[3] = system: H9c2 cardiomyocytes injured by H2O2; assay: Protection of cardiomyocytes injured by H2O2 (MTT); assay type: cell-based; conditions: for cell viability vs. model group: pretreated 24 h, 250 μM H2O2 2 h
Experimental: H9c2 cardiomyocytes obtained from Cell Bank of the Chinese Academy of Sciences (Shanghai, China) were cultured in DMEM (high glucose) supplemented with 1% P/S and 15% FBS in 5% CO2 at 37°C. The cells were collected with 0.25% trypsin, followed by re-seeding in 96-well multiplates with a density of 5×10^3 cells per well. The cell experiments were grouped as follows: normal group, model group (H2O2), administration groups and positive control groups (N-Acetyl-L-cysteine, NAC). […] After that, cells were incubated with 0.5 mg/ml of MTT for 4 h under standard condition, followed by addition of 150 µl DMSO into every well. The cell supernatants were finally removed and the optical density (OD) was recorded at 570 nm using a microplate reader (Thermo Fisher Scientific, United States). The protection rate of the compounds on H9c2 cardiomyocytes was calculated as (OD valueadministration group (or NAC group)-OD valuemodel group)/(OD valuenormal group-OD valuemodel group) ×100%.

[4] = Stability of 6 compounds of SI in rat plasma; conditions: for 10h in auto-sampler vials RE: extracted rat plasma; for 6h at room temperature RE / Freeze-thaw stability (three cycles) RE / Long-term stability (-80℃,15 days) RE: rat plasma
Description: The LC-MS method was validated by linearity, limits of detection (LOD), limits of quantification (LOQ), precision, accuracy, extraction recovery, matrix effect and stability of the 6 ingredients in rat plasma. Calibration curves were plotted using weighted linear regression of the peak area ratio of analyte to the IS against the corresponding nominal concentration of the analyte. LOD and LOQ were defined as the detectable concentration at which the ratio of signal to noise was more than 3 and 10, respectively. Intra- and inter-day accuracy and precision were assessed by detecting quality control (QC) samples using five replicates of rat samples at three concentration levels on one or three validation days, respectively. Accuracy and precision were expressed by relative error (RE) and relative standard deviation (RSD), respectively. The extraction recovery and matrix effect of the 6 components at above-mentioned three concentration levels were determined. Stability was assessed under the condition of placing un-treated plasma samples at room temperature for 6 h, and extracted plasma samples in auto-sampler for 10 h, as well as placing plasma samples within freeze-thaw three cycles and at −80 °C for 15 days.

[5] = Stability in diluted SI at room temperature; conditions: analyzed at 0, 2, 4, 8, 12, 24, and 48 h
[6] = 1 h after administration (2 ml/kg of SI), preliminary test

## COc1cc(/C=C/CO)cc(OC)c1O[C@@H]1O[C@H](CO)[C@@H](O)[C@H](O)[C@H]1O [SYR, syringin]
[1]; [6]
  detection in rat plasma: can be detected
[1]; after administration of SI
  systematic exposure of SYR lower than that of HSYA: over 10 times
[1]; in vivo, 1 ml/kg
  AUC(0-inf): 116 ± 70.5 ng·h/mL
  AUC(0-t): 101 ± 57.4 ng·h/mL
  Cmax: 260 ± 59.4 ng/mL
  MRT inf: 22.8 ± 9.6 min
  MRT last: 16.2 ± 6 min
  Vd: 0.21 ± 0.07 L/kg
  clearance: 11.5 mL/min/kg
  half-life: 15 ± 5.4 min
[1]; in vivo, 2 ml/kg
  AUC(0-inf): 368 ± 78.7 ng·h/mL
  AUC(0-t): 363 ± 81.5 ng·h/mL
  Cmax: 465 ± 42.9 ng/mL
  MRT inf: 45 ± 8.4 min
  MRT last: 41.4 ± 4.2 min
  Vd: 0.31 ± 0.2 L/kg
  clearance: 5.67 mL/min/kg
  half-life: 36.6 ± 15 min
[1]; in vivo, 4 ml/kg
  AUC(0-inf): 592 ± 96.6 ng·h/mL
  AUC(0-t): 586 ± 94.4 ng·h/mL
  Cmax: 925 ± 38.5 ng/mL
  MRT inf: 42.6 ± 13.8 min
  MRT last: 40.2 ± 12.6 min
  Vd: 0.31 ± 0.11 L/kg
  clearance: 6.83 mL/min/kg
  half-life: 31.8 ± 13.8 min
[1]
  detected mean maximum plasma concentration: 0.93 μg/mL and 2.5 μM
[2]; fold change ≤1/1.5, p <0.05
  proteins downregulated vs. M group: 231 proteins
[2]; fold change ≥1.5, p <0.05
  proteins upregulated vs. M group: 131 proteins
[2]; vs. M group
  KEGG pathway regulation: downregulated the ribosome pathway and upregulated the lysosome pathway
  changed protein expression located at the cytoplasm: 42.54%
  changed protein expression located at the nucleus: 30.39%
[3]; 5 μM
  cell viability vs. model group: higher cell viability than the model group
[3]; 10 μM
  cell viability vs. model group: higher cell viability than the model group
[3]; 1, 5 and 10 μM
  anti-H2O2 injury effect (protection rate): concentration-dependent
[4]; spiked 40 ng/mL
  10h in auto-sampler vials RE: -12.50%
  6h at room temperature RE: -2.50%
  Freeze-thaw stability (three cycles) RE: 1.50%
  Long-term stability (-80℃,15 days) RE: -9.50%
[4]; spiked 400 ng/mL
  10h in auto-sampler vials RE: 1.61%
  6h at room temperature RE: 3.65%
  Freeze-thaw stability (three cycles) RE: 2.65%
  Long-term stability (-80℃,15 days) RE: 0.30%
[4]; spiked 10000 ng/mL
  10h in auto-sampler vials RE: 1.41%
  6h at room temperature RE: 1.55%
  Freeze-thaw stability (three cycles) RE: 2.30%
  Long-term stability (-80℃,15 days) RE: 0.98%
[5]
  Stability RSD: 2.76%

## O=C(O)[C@H]1O[C@@H](Oc2cc3oc(-c4ccc(O)cc4)cc(=O)c3c(O)c2O)[C@H](O)[C@@H](O)[C@@H]1O [SCU, scutellarin]
[1]; [6]
  detection in rat plasma: can be detected
[1]; behind 15 min after i.v. low dose administration (1 ml/kg of SI)
  detection in rat plasma: can’t be detected
[1]; plasma
  half-life: ≥ 155 min
[1]; plasma, 2 ml/kg
  AUC(0-inf): 105 ± 31.5 ng·h/mL
  AUC(0-t): 89.8 ± 21 ng·h/mL
  Cmax: 162 ± 17.4 ng/mL
  MRT inf: 174 ± 145 min
  MRT last: 87.6 ± 38.4 min
  Vd: 0.05 ± 0.02 L/kg
  clearance: 0.167 mL/min/kg
  half-life: 155 ± 110 min
[1]; plasma, 4 ml/kg
  AUC(0-inf): 358 ± 34 ng·h/mL
  AUC(0-t): 306 ± 12.5 ng·h/mL
  Cmax: 327 ± 60 ng/mL
  MRT inf: 178 ± 89.4 min
  MRT last: 94.2 ± 40.8 min
  Vd: 0.03 ± 0.01 L/kg
  clearance: 0.167 mL/min/kg
  half-life: 170 ± 71.4 min
[1]
  detected mean maximum plasma concentration: 0.327 μg/mL and 0.7 μM
[3]; 0.7 μM, preliminary test at maximum detected plasma concentration
  protection: absence of protection
[4]; spiked 40 ng/mL
  10h in auto-sampler vials RE: 10.63%
  6h at room temperature RE: -6.50%
  Freeze-thaw stability (three cycles) RE: 0.00%
  Long-term stability (-80℃,15 days) RE: 6.00%
[4]; spiked 1000 ng/mL
  10h in auto-sampler vials RE: 0.30%
  6h at room temperature RE: -2.90%
  Freeze-thaw stability (three cycles) RE: -4.00%
  Long-term stability (-80℃,15 days) RE: 2.80%
[4]; spiked 10000 ng/mL
  10h in auto-sampler vials RE: -1.48%
  6h at room temperature RE: -2.06%
  Freeze-thaw stability (three cycles) RE: -5.21%
  Long-term stability (-80℃,15 days) RE: -0.81%
[5]
  Stability RSD: 4.42%
